# Results as given in patent publication US20230241000A1, “GSK3 INHIBITOR-LOADED NANO FORMULATIONS AS A CANCER IMMUNOTHERAPEUTIC” (The Regents of the University of California, priority 2020, published 2023).
# Entries after “also recorded” stand apart in the source; their conditions may differ.
# What was measured:
# [1] = Remote loading of GSK3 inhibitors into silicasomes: encapsulation efficiency and loading capacity; assay type: physicochemical
# Procedure: The overall scheme for the synthesis of silicasome carriers to deliver GSK3 inhibitors is outlined in FIG. 3. Briefly, a large batch (i.e. 120 g) synthesis of bare particles was carried out as previously, yielding ˜70 nm MSNPs (FIG. 3, panel A) (22). […] 20 mg soaked-in MSNPs were then used together with an ethanol suspended lipid solution, comprised of a mixture of 60 mg DSPC:Cholesterol:PE-PEG2000 (molar ratio of 6:4:0.3), for coating with a lipid bilayer by a flow through sonication procedure (FIG. 3, panel B). Following the removal of the non-encapsulated trapping agent, AZD2858, AZD1080, LY2090314, and 1-Azakenpaullone were dissolved in 0.9% saline and incubated with the silicasome carrier to assess the loading capacity in response to different feed weight percentages (FIG. 11).
# Four GSK3 inhibitor-laden silicasome formulations were analyzed to assess encapsulation efficiency and loading capacity. 100 μL of the silicasomes suspension at 10 mg/mL in 0.9% NaCl (1 mg silicasomes) was added to AZD1080, AZD2858, LY2090314, and 1-azakenpaullone solutions, which were prepared by adding 50, 100 or 200 μg of each inhibitor to 900 μL water. These drug mass quantities provided feed weight percentages of 5, 10, and 20%, in comparison to the silicasome mass. Following execution of the remote loading procedure as detailed above, the crude solutions were used to assess absorbance in a glass bottom 96-well plate (Total Drug Absorbance). Silicasomes were centrifuged at 21,000×g for 15 minutes to pellet the particles. After removal of the supernatant, the silicasomes were re-suspended in aa fresh 0.9% NaCl solution. This was repeated three times to remove any unloaded inhibitor. The silicasome solution was then sampled and absorbance was measured to determine Loaded Drug Absorbance. Concentration-matched unloaded ‘blank’ silicasomes also had absorbance measured (Silicasome Blank Absorbance). Encapsulation efficiency was calculated by the following formula: […]
# All measurements were taken using a SpectraMax M5 plate reader (Molecular Devices). All solutions were diluted 1/10 in 0.9% NaCl solution prior to absorbance reads. The absorbances used for each compound were: 418 nm for AZD1080, 383 nm for AZD2858, 213 nm for LY2090314, and 334 nm for 1-azakenpaullone.
# [2] = tested on: CD8+ T-cells in MC38 tumors; test: Flow cytometry of tumor-infiltrating CD8+ T-cells in MC38 tumors; assay type: in vivo, C57BL/6 mice
# From the text: In order to address the change in the immunological landscape with treatment, we asked whether sAZD1080 could impact the immune parameters that underpin treatment efficacy for immune checkpoint blocking antibodies. These include the CD8^+ cell number, the abundance of PD-1 expression on these cells, perforin release and the generation of cancer cell death, as reflected by activated caspase 3. For the first analysis, tumor cell digests were used to assess the number of CD8^+/CD107a^+/granzyme B^+ lymphocytes by flow cytometry (14, 30). […] In order to assess the status of PD-1 expression on CD8+ cells, flow cytometry was used to assess the % of […] cells in the tumor digests (14, 31).
# Tumors were harvested from MC38 mice after sacrifice. Tumors larger than 100 mm^3 were divided in two, with one half preserved for histology and the other half used to conduct flow cytometry. To prepare samples for flow cytometry, tumor chunks of 2-3 mm^3 were incubated in an enzyme cocktail (1 mg/mL collagenase type IV, 2000 U DNase type IV, 0.1 mg/mL hyaluronidase type V in 1×HBSS) for 1 hour, and the digests passed through a 70 μm nylon filter. Cells were pelleted and washed in HBSS.
# Cells were diluted in cell staining buffer, pelleted by centrifuging at 350×g for 5 minutes, and washed twice. […]
# GSK3 = conditions: values provided by chemical vendors (Cayman Chemical, Selleck Chemicals); cited from earlier work
# Tbx21 expression = test: RT-qPCR of Tbx21 in anti-CD3 activated primary murine T-cells; assay type: cell-based, C57BL/6 mouse; conditions: 10 μM, 72 hours, normalized against Gapdh
# Procedure: This is compatible with the translational expression of T-bet, a transcription factor that interferes in PD-1 expression (FIG. 1, panel B).
# Wells of a 96-well tissue culture plate were coated with anti-mouse CD3 antibody (Ultra-LEAF, Biolegend). 7.5 μL of 1 mg/mL antibody solution was diluted in 1 mL of 1×PBS, before 50 μL of the dilution was added to each plate well for 2 hours at 37° C. The wells were then thoroughly washed 3× with 1×PBS.
# T-cells were extracted from C57BL/6 mouse spleens, using a standard procedure with minor modifications (71). Two mouse spleens were mechanically disrupted and the released cells were passed through a 70 μm filter. Red blood cells were lysed using RBC lysis buffer (eBioscience) at 4° C. for 5 minutes. 10 mL of 1×PBS was added to stop the lysis process, following which cells were pelleted at 300×g for 5 minutes. […]
# Cells were collected and RNA was extracted using Direct-zol RNA MiniPrep Plus kits (Zymo), as per the manufacturer's instructions. Extracted RNA was converted into cDNA using SuperScript III First-Strand Synthesis System kits (Invitrogen). cDNA from treated T-cells was analyzed by RT-PCR using a LightCycler 480 instrument (Roche) and the LightCycler 480 SYBR Green I Master kit (Roche), per manufacturer's instructions. cDNA was analyzed using forward and reverse primers for Pdcd1, Tbx21, and Gapdh as a control, as described previously (10, 14). […]
structure (smiles),measurement,setting,value
N#Cc1ccc2[nH]c(O)c(-c3ccc(CN4CCOCC4)cn3)c2c1 [AZD1080],Encapsulation Efficiency,"[1]; AZD1080 remote loaded in silicasome, feed weight of 5%, ± SD, 3 samples",62.5%
same,Loading Capacity,"[1]; AZD1080 remote loaded in silicasome, ± SD, 3 samples",8.1 w/w %
same,solubility during remote loading (in words),"[1]; dissolved in 0.9% saline, incubated with silicasome carrier, feed weight %",good aqueous solubility
same,encapsulation efficiency in silicasomes (in words),"[1]; remote loading at 5, 10 or 20 feed weight %",highest encapsulation efficiency; also recorded: moderate efficiency
same,% of CD8/PD-1+ cells in the tumor digests,[2],did not impact
same,IC50,GSK3,31 nM
same,Tbx21 mRNA expression,Tbx21 expression,increased
